pKi: −log10 of the molar value. Where only a bound is given, the exact number is not on record here.

The first assay concerns the target T1, full-length hepatitis C viral protein NS3•4A (Hepatitis C virus genotype 1a, UniProt P27958).
T1 construct: hexa-histidine (N); made in house; host or cells: Sf9 insect cells (baculovirus, pVL1392)
The assay is described as follows: biochemical. Also on record: species or system HCV sub-type strain 1a. As to conditions: Enzyme Assay 2 (HCV NS3 Peptide Cleavage Assay) activity, apparent Ki class.
Broadly, the pKi is −log10 of the Ki, conventionally taken in molar units. Take `CCC[C@H](NC(=O)[C@@H]1C[C@@]2(CC(c3cccc4cccnc34)=NO2)CN1C(=O)[C@@H](NC(=O)CC1CCCCC1)C(C)(C)C)C(=O)C(=O)NC1CC1` [Compound 31]: the negative-log Ki (pKi) was 6.30 to 7.00.
The same measure, in the same setting: the result for `CCC[C@H](NC(=O)[C@@H]1C[C@]2(CC(c3cc(Cl)cc(OC)c3Cl)=NO2)CN1C(=O)[C@@H](NC(=O)CC1CCCCC1)C(C)(C)C)C(=O)C(=O)NC1CC1` [Compound 38] reads 6.30 to 7.00; that for `CCC[C@H](NC(=O)[C@@H]1C[C@]2(CC(c3cccc(Cl)c3)=NO2)CN1C(=O)[C@@H](NC(=O)CC1CCCCC1)C(C)(C)C)C(=O)C(=O)N1CC(OCC2CCOC2)C1` (stereo partly shown) [Compound 49], above 7.00; that for `CC(C)(C)[C@H](NC(=O)CC1CCCCC1)C(=O)N1C[C@@]2(CC(c3cccc(Cl)c3)=NO2)C[C@H]1C(=O)N[C@@H](CC1CC1)C(=O)C(=O)NC1CC1` [Compound 50], above 7.00.
Consider `COc1cc(OC)c(C2=NO[C@]3(C2)CC(C(=O)N[C@@H](CC2CC2)C(=O)C(N)=O)N(C(=O)[C@@H](NC(=O)CC2CCCCCC2)C(C)(C)C)C3)cc1Cl` (stereo partly shown) [Compound 59], for which the pKi was above 7.00.
Still for that read-out and setting: the value for `CCC[C@H](NC(=O)[C@@H]1C[C@]2(CC(c3cccc4cccnc34)=NO2)CN1C(=O)[C@@H](NC(=O)CC1CCCCC1)C(C)(C)C)C(=O)C(=O)NC` [Compound 68] was above 7.00; that for `CCC[C@H](NC(=O)[C@@H]1C[C@]2(CC(c3cccc([N+](=O)[O-])c3)=NO2)CN1C(=O)[C@@H](NC(=O)CC1CCCCC1)C(C)(C)C)C(=O)C(=O)NC1CC1` [Compound 89] was 6.30 to 7.00; that for `CCC[C@H](NC(=O)[C@@H]1C[C@]2(CC(c3cccc(Cl)c3)=NO2)CN1C(=O)[C@@H](NC(=O)OC(C)(C)C)C(C)(C)C)C(=O)C(=O)NC1CC1` [Compound 90] was above 7.00.
Still for that read-out and setting: the value for `COc1cc(OC)c(C2=NO[C@]3(C2)C[C@@H](C(=O)N[C@@H](CC2CC2)C(=O)C(N)=O)N(C(=O)[C@@H](NC(=O)CC(C)(C)C)C(C)(C)C)C3)cc1Cl` [Compound 104] was above 7.00.
On the same count and under the same terms, the value for `CCC[C@H](NC(=O)[C@@H]1C[C@]2(CC(c3cc(Cl)c(OC)cc3OC)=NO2)CN1C(=O)[C@@H](NC(=O)CC1CCCCCC1)C(C)(C)C)C(=O)C(=O)NC1CC1` [Compound 129] was above 7.00.
Turning to `CCC[C@H](NC(=O)[C@@H]1C[C@]2(CC(c3cc(Cl)c(OC)cc3OC)=NO2)CN1C(=O)[C@@H](NC(=O)OC(C)(C)C)C(C)(C)C)C(=O)C(=O)NC1CC1` [Compound 131], the pKi was above 7.00.
For `CCC[C@H](NC(=O)[C@@H]1C[C@]2(CC(c3cccc(Cl)c3F)=NO2)CN1C(=O)[C@@H](NC(=O)CC1CCCCC1)C(C)(C)C)C(=O)C(=O)NC1CC1` [Compound 169], the pKi is 6.30 to 7.00.
Still for that read-out and setting: the value for `CCC[C@H](NC(=O)[C@@H]1C[C@]2(CC(c3cc(Cl)cc4c3OC(C)(C)C4)=NO2)CN1C(=O)[C@@H](NC(=O)CC1CCCCC1)C(C)(C)C)C(=O)C(=O)NC1CC1` [Compound 170] was above 7.00.
As to `CC1(CC(=O)N[C@H](C(=O)N2C[C@@]3(CC(c4cccc(Cl)c4)=NO3)C[C@H]2C(=O)N[C@@H](CC2CC2)C(=O)C(N)=O)C(C)(C)C)CCOCC1` [Compound 184], the pKi was above 7.00.
`COc1c(C)cc(C2=NO[C@]3(C2)C[C@@H](C(=O)N[C@@H](CC2CC2)C(=O)C(N)=O)N(C(=O)[C@@H](NC(=O)CC2CCCCC2)C(C)(C)C)C3)cc1Cl` [Compound 195]: the pKi was above 7.00.

Another assay deals with T2, HCV NS3 protease domain (Hepatitis C virus genotype 1b, UniProt Q9WMX2).
T2 construct: The first 181 amino acids of NS3 (residues 1027-1207 of the viral polyprotein); hexa-histidine (C); made in house; host or cells: E. coli BL21/DE3 pLysS
The assay can be described thus: biochemical. As to conditions: Enzyme Assay 1 (HCV NS3 Protease Domain Peptide Cleavage Assay) activity, apparent Ki class.
As for `CCC[C@H](NC(=O)[C@@H]1C[C@]2(CC(c3ccc4c(c3)OCO4)=NO2)CN1C(=O)[C@@H](NS(=O)(=O)c1cccc2ccccc12)C(C)(C)C)C(=O)C(=O)NC1CC1` [Compound 536], the pKi is below 6.30.
On to `CCC[C@H](NC(=O)[C@@H]1C[C@]2(CC(c3cccc(Cl)c3)=NO2)CN1C(=O)[C@@H](NC(=O)C(C)(C#N)Cc1ccccc1)C(C)(C)C)C(=O)C(=O)NC1CC1` (stereo partly shown) [Compound 538], for which the pKi was below 6.30.
With `CCC[C@H](NC(=O)[C@@H]1C[C@]2(CC(c3ccc(F)c(C)c3)=NO2)CN1C(=O)[C@@H](NC(=O)CC1CCOCC1)C(C)(C)C)C(=O)C(=O)NC1CC1` [Compound 539], the pKi is 6.30 to 7.00.
As for `CC(C)(C)NC(=O)N[C@H](C(=O)N1C[C@@]2(CC(c3cccc(Cl)c3)=NO2)C[C@H]1C(=O)NC(CC1CCC1)C(=O)C(=O)NC1CC1)C(C)(C)C` (stereo partly shown) [Compound 542], the negative-log Ki (pKi) was above 7.00.
The same measure, in the same setting: the value for `CCC[C@H](NC(=O)[C@@H]1C[C@]2(CC(c3ccc(C(=O)O)cc3)=NO2)CN1C(=O)[C@@H](NC(=O)O[C@H]1CCOC1)C(C)(C)C)C(=O)C(=O)NC1CC1` [Compound 543] was below 6.30; that for `CCC[C@H](NC(=O)[C@@H]1C[C@]2(CC(c3cccc(Cl)c3)=NO2)CN1C(=O)[C@@H](NC(=O)C(C)Cn1cnc2ccccc21)C(C)(C)C)C(=O)C(=O)NC1CC1` (stereo partly shown) [Compound 544] was 6.30 to 7.00; that for `CCC[C@H](NC(=O)[C@@H]1C[C@]2(CC(c3ccc(F)c(C(F)(F)F)c3)=NO2)CN1C(=O)[C@@H](NC(=O)O[C@H]1CCOC1)C(C)(C)C)C(=O)C(=O)NC1CC1` [Compound 545] was 6.30 to 7.00.
Still for that read-out and setting: the value for `CCC[C@H](NC(=O)[C@@H]1C[C@]2(CC(CC)=NO2)CN1C(=O)[C@@H](NC(=O)[C@@H](NC(=O)c1cnccn1)C1CCCCC1)C(C)(C)C)C(=O)C(=O)NC1CC1` [Compound 547] was above 7.00.
As for `CCC[C@H](NC(=O)[C@@H]1C[C@]2(CC(c3cccc(Cl)c3)=NO2)CN1C(=O)[C@@H](NC(=O)[C@@H](CC(=O)N1CCCC1)C1CCCCC1)C(C)(C)C)C(=O)C(=O)NC1CC1` [Compound 549], the pKi was above 7.00.
`CCC[C@H](NC(=O)[C@@H]1C[C@]2(CC(c3ccc4c(c3)CCO4)=NO2)CN1C(=O)[C@@H](NC(=O)CC1CCCCC1)C(C)(C)C)C(=O)C(=O)NC1CC1` [Compound 552]: the negative logarithm of the Ki (pKi) was 6.30 to 7.00.
Still for that read-out and setting: the result for `CCC[C@H](NC(=O)[C@@H]1C[C@]2(CC(c3cccc(Cl)c3)=NO2)CN1C(=O)[C@@H](NC(=O)Cc1cc(=O)[nH]c(=O)[nH]1)C(C)(C)C)C(=O)C(=O)NC1CC1` [Compound 553] reads 6.30 to 7.00; that for `CCC[C@H](NC(=O)[C@@H]1C[C@]2(CC(c3ccc(CC)o3)=NO2)CN1C(=O)[C@@H](NC(=O)CC1CCOCC1)C(C)(C)C)C(=O)C(=O)NC1CC1` [Compound 554], below 6.30.
On the same count and under the same terms, the value for `CCC[C@H](NC(=O)[C@@H]1C[C@]2(CC(c3ccc(F)c(C)c3)=NO2)CN1C(=O)[C@@H](NC(=O)O[C@H]1CCOC1)C(C)(C)C)C(=O)C(=O)NC1CC1` [Compound 555] was 6.30 to 7.00; that for `CCC[C@H](NC(=O)[C@@H]1C[C@]2(CC(c3cccc(Cl)c3)=NO2)CN1C(=O)[C@@H](NC(=O)C1CC=CCC1C(=O)OC)C(C)(C)C)C(=O)C(=O)NC1CC1` (stereo partly shown) [Compound 557] was 6.30 to 7.00.
Take `CCC[C@H](NC(=O)[C@@H]1C[C@]2(CC(c3cccc(Cl)c3)=NO2)CN1C(=O)[C@@H](NC(=O)Nc1ccccc1)C(C)(C)C)C(=O)C(=O)NC1CC1` [Compound 558]: the pKi was 6.30 to 7.00.
In the case of `CCC[C@H](NC(=O)[C@@H]1C[C@]2(CC(c3cccc(C(F)(F)F)c3)=NO2)CN1C(=O)[C@@H](NC(=O)O[C@H]1CCOC1)C(C)(C)C)C(=O)C(=O)NC1CC1` [Compound 560], the pKi was 6.30 to 7.00.
`CCC[C@H](NC(=O)[C@@H]1C[C@]2(CC(c3cccc(Cl)c3)=NO2)CN1C(=O)[C@@H](NC(=O)OCc1cc(F)ccc1F)C(C)(C)C)C(=O)C(=O)NC1CC1` [Compound 561]: the negative logarithm of the Ki (pKi) is 6.30 to 7.00.
Take `CCC[C@H](NC(=O)[C@@H]1C[C@]2(CC(c3cccc(Cl)c3)=NO2)CN1C(=O)[C@@H](NC(=O)OCc1cccnc1)C(C)(C)C)C(=O)C(=O)NC1CC1` [Compound 563]: the pKi is 6.30 to 7.00.
Take `CCC[C@H](NC(=O)[C@@H]1C[C@]2(CC(c3ccc4c(c3)OCO4)=NO2)CN1C(=O)[C@@H](NC(C)=O)C(C)(C)C)C(=O)C(=O)NC1CC1` [Compound 570]: the pKi is 6.30 to 7.00.
Still for that read-out and setting: the value for `CCC[C@H](NC(=O)[C@@H]1C[C@]2(CC(c3cccc(Cl)c3)=NO2)CN1C(=O)[C@@H](NC(=O)c1ccnn1-c1ccccc1)C(C)(C)C)C(=O)C(=O)NC1CC1` [Compound 571] was 6.30 to 7.00; that for `CCC[C@H](NC(=O)[C@@H]1C[C@]2(CC(c3cc(C)c(OC)c(C)c3)=NO2)CN1C(=O)[C@@H](NC(=O)CC1CCOCC1)C(C)(C)C)C(=O)C(=O)NC1CC1` [Compound 572] was 6.30 to 7.00; that for `CCC[C@H](NC(=O)[C@@H]1C[C@]2(CC(c3cccc(Cl)c3)=NO2)CN1C(=O)[C@@H](NC(=O)Nc1cccnc1)C(C)(C)C)C(=O)C(=O)NC1CC1` [Compound 576] was 6.30 to 7.00.
As to `CC(C)C[C@H](NC(=O)[C@@H]1C[C@]2(CC(c3cccc(Cl)c3)=NO2)CN1C(=O)[C@@H](NC(=O)CC1CCCCC1)C(C)(C)C)C(=O)C(=O)NC1CC1` [Compound 579], the pKi was 6.30 to 7.00.
On the same count and under the same terms, the value for `CCC[C@H](NC(=O)[C@@H]1C[C@]2(CC(c3ccccc3)=NO2)CN1C(=O)[C@@H](NC(=O)NCC)C(C)(C)C)C(=O)C(=O)NC1CC1` [Compound 580] was 6.30 to 7.00; that for `CCC[C@H](NC(=O)[C@@H]1C[C@]2(CC(c3cccc(Cl)c3)=NO2)CN1C(=O)[C@@H](NC(=O)OCCc1cccs1)C(C)(C)C)C(=O)C(=O)NC1CC1` [Compound 582] was 6.30 to 7.00; that for `CCC[C@H](NC(=O)[C@@H]1C[C@]2(CC(c3cccc(Cl)c3)=NO2)CN1C(=O)[C@@H](NC(=O)NCc1ccccc1)C(C)(C)C)C(=O)C(=O)NC1CC1` [Compound 583] was 6.30 to 7.00.
Still for that read-out and setting: the value for `CCC[C@H](NC(=O)[C@@H]1C[C@]2(CC(c3ccccc3)=NO2)CN1C(=O)c1ccc[nH]1)C(=O)C(=O)NC1CC1` [Compound 584] was below 6.30; that for `CCC[C@H](NC(=O)[C@@H]1C[C@]2(CC(c3cccc(Cl)c3)=NO2)CN1C(=O)[C@@H](NC(=O)Cc1cccc(OC(F)(F)F)c1)C(C)(C)C)C(=O)C(=O)NC1CC1` [Compound 585] was 6.30 to 7.00.

The values are drawn from patent US7964624B1, “Inhibitors of serine proteases” (priority 2005, dated 2011).
